Measured values taken from patent US4329362A, “2-Amino-4-(substituted hydrazino)-6-oxo pyrimidines” (Burroughs Wellcome Co., priority 1977, dated 1982).
Structures can show the parent of a compound that is named as a salt. Where two headings read alike, the source gives them in different places.

Columns and labels:
[1] = target: dihydropteroic acid biosynthesis (DHPB): hydroxymethyldihydropteridine pyrophosphokinase and dihydropteroate synthetase; experiment: coupled assay of dihydropteroic acid biosynthesis (kinase + synthetase), 14C H2pteroate formation; type: biochemical; details: coupled assay method; E. coli extract, 0-50% ammonium sulfate fraction; 14C in H2 pteroate from p-aminobenzoate-7-14C; read-out: Concentration in μM required to give 50% inhibition of DHPB
From the text: Potential inhibitors of DHPB synthesis may be tested by investigating the inhibitory effect they impose in the enzymes responsible for the biosynthesis of dihydropteroic acid (DPtA), namely hydroxymethyldihydropteridine pyrophosphokinase (HMPPS), and dihydropteroate synthetase, hereinafter referred to as `synthetase`. In the following reaction equations the compounds are referred to by their abbreviated forms defined hereinbefore in the specification. [formula]
This reaction requires two enzymes since the starting substrates are H2 ptCH2 OH, ATP, and pAB, and the products are H2 pteroate and AMP.
The reactions are followed by determining the amount of ^14 C in H2 pteroate after separation from the substrate, p-aminobenzoate-7-^14 C, by paper chromatography.

pKa values = type: physicochemical

Compound: COc1cc(OC)c(C(=O)Cc2nn(C)c3nc(N)[nH]c(=O)c3c2=O)c(OC)c1 [7-Amino-3-(2,4,6-trimethoxyphenacyl)-1-methylpyrimido(4,5-c)pyridazine-4,5(1H, 6H)-dione]
- IC50 [1]: 2.7 µM

Compound: COc1ccc(C(=O)Cc2nn(C)c3nc(N)[nH]c(=O)c3c2=O)c(OC)c1 [7-Amino-3-(2,4-dimethoxyphenacyl)-1-methylpyrimido(4,5-c)pyridazine-4,5(1H,6H)-dione]
- IC50 [1]: 0.14 µM

Compound: COc1ccc(OC)c(C(=O)Cc2nn(C)c3nc(N)[nH]c(=O)c3c2=O)c1 [7-Amino-3-(2,5-dimethoxyphenacyl)-1-methylpyrimido(4,5-c)pyridazine-4,5(1H,6H)-dione]
- IC50 [1]: 0.06 µM

Compound: COc1cc(C(=O)Cc2nn(C)c3nc(N)[nH]c(=O)c3c2=O)cc(OC)c1OC [7-Amino-3-(3,4,5-trimethoxyphenacyl)-1-methylpyrimido(4,5-c)pyridazine-4,5(1H, 6H)-dione]
- IC50 [1]: 0.03 µM

Compound: COc1ccc(C(=O)Cc2nn(C)c3nc(N)[nH]c(=O)c3c2=O)cc1OC [7-Amino-3-(3,4-dimethoxyphenacyl)-1-methylpyrimido(4,5-c)pyridazine-4,5(1H,6H)-dione]
- IC50 [1]: 0.15 µM

Compound: Cn1nc(CC(=O)c2cccc(O)c2)c(=O)c2c(=O)[nH]c(N)nc21 [7-Amino-3-(3-hydroxyphenacyl)-1-methylpyrimido(4,5-c)pyridazine-4,5(1H, 6H)-dione]
- IC50 [1]: 0.22 µM

Compound: Cn1nc(Cc2ccccc2[N+](=O)[O-])c(=O)c2c(O)nc(N)nc21 [7-amino-1-methyl-3-(2-nitrobenzyl)-4-oxo-5-hydroxy-1,4-dihydropyrimido(4,5-c)pyridazine]
- IC50 [1]: 12 µM

Compound: COc1cc(CC(C#N)c2nn(C)c3nc(N)nc(O)c3c2=O)cc(OC)c1OC (stereo not drawn) [7-amino-1-methyl-3-(α-cyano-3,4,5-trimethoxyphenethyl)-4-oxo-5-hydroxy-1,4-dihydropyrimido(4,5-c)pyridazine]
- IC50 [1]: 11 µM

Compound: COc1cc(Cc2nn(C)c3nc(N)nc(O)c3c2=O)cc(OC)c1OC [7-amino-3-(3,4,5-trimethoxybenzyl)-1-methyl-4-oxo-5-hydroxy-1,4-dihydropyrimido(4,5-c)pyridazine]
- IC50 [1]: 0.77 µM

Compound: COc1ccc(Cc2nn(C)c3nc(N)nc(O)c3c2=O)cc1OC [7-amino-3-(3,4-dimethoxybenzyl)-1-methyl-4-oxo-5-hydroxy-1,4-dihydropyrimido(4,5-c)pyridazine]
- IC50 [1]: 0.86 µM

Compound: CCc1nn(C)c2nc(N)[nH]c(=O)c2c1=O [C2 H5]
- IC50 [1]: 33 µM

Compound: Cn1nc(-c2ccccc2)c(=O)c2c(O)nc(N)nc21 [C6 H5, 7-amino-1-methyl-3-phenyl-4-oxo-5-hydroxy-1,4-dihydropyrimido(4,5-c)pyridazine]
- IC50 [1]: 15 µM

Compound: Cn1nc(Cc2ccccc2)c(=O)c2c(O)nc(N)nc21 [CH2 C6 H5, 7-amino-1-methyl-3-benzyl-4-oxo-5-hydroxy-1,4-dihydropyrimido(4,5-c)pyridazine]
- IC50 [1]: 11 µM

Compound: CCOC(=O)CCc1nn(C)c2nc(N)[nH]c(=O)c2c1=O [CH2 CH2 CO2 C2 H5]
- IC50 [1]: 16 µM

Compound: Cn1nc(CCC(=O)O)c(=O)c2c(=O)[nH]c(N)nc21 [CH2 CH2 CO2 H]
- IC50 [1]: 5.5 µM

Compound: CCOC(=O)Cc1nn(C)c2nc(N)nc(O)c2c1=O [CH2 CO2 C2 H5, 7-amino-1-methyl-3-(ethoxycarbonylmethyl)-4-oxo-5-hydroxy-1,4-dihydropyrimido(4,5-c)pyridazine]
- IC50 [1]: 6.2 µM

Compound: Cn1nc(CC(=O)c2ccccc2)c(=O)c2c(=O)[nH]c(N)nc21 [CH2 COC6 H5, 7-Amino-3-phenacyl-1-methylpyrimido(4,5-c)pyridazine-4,5(1H, 6H)-dione]
- IC50 [1]: 0.76 µM

Compound: CC(=O)OCc1nn(C)c2nc(N)[nH]c(=O)c2c1=O [CH2 OCOCH3, 7-Amino-3-acetoxymethyl-1-mehylpyrimido(4,5-c)pyridazine-4,5(1H, 6H)-dione]
- IC50 [1]: 15 µM

Compound: Cn1nc(CO)c(=O)c2c(=O)[nH]c(N)nc21 [CH2 OH, 7-Amino-3-hydroxymethyl-1-methylpyrimido(4,5-c)pyridazine-4,5(1H, 6H)-dione Sodium Salt]
- IC50 [1]: 12 µM

Compound: Cc1nn(C)c2nc(N)[nH]c(=O)c2c1=O [CH3, 7-Amino-1,3-dimethylpyrimido(4,5-c)pyridazine-4,5-(1H, 6H)-dione]
- pKa (pKa values; read-out: pKa values (first value)): 4.1 ± 0.1
- pKa (pKa values; read-out: pKa values (second value)): 8.6 ± 0.1
- IC50 [1]: 16 µM

Compound: CCOC(=O)C(C)c1nn(C)c2nc(N)[nH]c(=O)c2c1=O (stereo not shown) [CH(CH3)CO2 C2 H5, 7-Amino-3-(1-ethoxycarbonylethyl)-1-methylpyrimido(4,5-c)pyridazine-4,5(1H,6H)-dione]
- IC50 [1]: 1.6 µM

Compound: CC(C(=O)O)c1nn(C)c2nc(N)[nH]c(=O)c2c1=O (stereo not shown) [CH(CH3)CO2 H, 7-Amino-3-(1-carboxyethyl)-1-methylpyrimido(4,5-c)pyridazine-4,5(1H, 6H)-dione Disodium Salt]
- IC50 [1]: 3.7 µM

Compound: CCOC(=O)C(OC)c1nn(C)c2nc(N)[nH]c(=O)c2c1=O (stereo not shown) [CH(OCH3)CO2 C2 H5]
- IC50 [1]: 17 µM

Compound: COC(C(=O)O)c1nn(C)c2nc(N)nc(O)c2c1=O (stereo not shown) [CH(OCH3)CO2 H, 7-amino-1-methyl-3-((1-methoxy)carboxymethyl)-4-oxo-5-hydroxy-1,4-dihydropyrimido(4,5-c)pyridazine]
- IC50 [1]: 2.8 µM

Compound: Cn1nc(C(=O)O)c(=O)c2c(=O)[nH]c(N)nc21 [CO2 H (disodium salt), 7-Amino-3-carboxy-1-methylpyrimido(4,5-c)pyridazine-4,5(1H, 6H)-dione Disodium Salt]
- IC50 [1]: 21 µM

Compound: Cn1nc(-c2c[nH]c3ccccc23)c(=O)c2c(=O)[nH]c(N)nc21 [Example 3-Indolyl]
- IC50 [1]: 30 µM

Compound: CC(C)Cc1nn(C)c2nc(N)[nH]c(=O)c2c1=O [iso-C4 H9]
- IC50 [1]: 20 µM

Compound: CCCc1nn(C)c2nc(N)[nH]c(=O)c2c1=O [n-C3 H7]
- IC50 [1]: 45 µM

Compound: CCCCCCc1nn(C)c2nc(N)[nH]c(=O)c2c1=O [n-C6 H13]
- IC50 [1]: 50 µM
